Reference: a melting point compilation (Tetko et al.; mined from patent text by program, amines drawn as free bases though some values may be those of a salt)

Compared with `COCCOC(=O)C1=NNC(C)=C(C(=O)OC(C)C)C1c1cccc([N+](=O)[O-])c1` (configuration not stated), `CCOC(=O)C1=C(C)N2CCCC2=C(C(C)=O)C1c1cccc([N+](=O)[O-])c1` (configuration not stated) is lower in melting point: 165 °C for the first, 161 °C for the second.

First: CCOc1ccc(-c2nc(OC(C)=O)c(-c3ccccc3)s2)cc1
Second: O=C(c1ccccc1)c1ccc(-c2nc(COc3cccc(CCCn4ccnc4)c3)co2)cc1
The melting point of the first is higher: 149 to 150 °C for the first, 97 to 98 °C for the second.

Compared with `Cc1cc(Cl)ncc1C(=O)Nc1ccc2c(c1)-c1c(c(C(N)=O)nn1-c1ccc(F)cc1)CC2`, `Cc1c(C(=O)Nc2ccc(OC3CCN(Cc4ccccc4)CC3)c(C#N)c2)cnn1-c1ccc(Cl)cc1` is lower in melting point: 280 to 284 °C for the first, 194 °C for the second.

First: O=C(O)C1CC(=S)N(c2cc(C(F)(F)F)cc(C(F)(F)F)c2)C1 (configuration not stated)
Second: Cn1c(C(F)(F)F)cc(=O)n(-c2ccc3snc(CCl)c3c2)c1=O
The melting point of the first is lower: 141 to 142 °C for the first, 201 to 203 °C for the second.

First: Cn1c(COc2ccc(CC3SC(=O)NC3=O)cc2)nc2ccc(OCCc3ccc(C(C)(C)C)c(NC(=O)Nc4ccc(C(F)(F)F)cc4)c3)cc21 (configuration not stated)
Second: CC(O)c1ccc(-c2ccc(C(=O)OCc3ccc(Cl)cc3)cc2)cc1 (single isomer, unassigned; (+))
The melting point of the first is higher: 165 to 167 °C for the first, 108 to 110 °C for the second.

First: CC(CN1CC(=O)N(CN2CCOCC2)C(=O)C1)N1CC(=O)NC(=O)C1 (configuration not stated)
Second: c1ccc2c(N3CCOCC3)nc(N3CCOCC3)nc2c1
The melting point of the first is lower: 162 to 165 °C for the first, 172 to 174 °C for the second.

First: CC(=O)Nc1cccc(C)n1
Second: CC(=O)c1ccccc1Nc1c(Cl)ccc(C)c1Cl
The melting point of the first is lower: 87 °C for the first, 130 to 132 °C for the second.

Compared with `COc1ccc(N2CCN(c3ccc(OC)nc3-c3ccc(N(C)C)cc3)C(C)C2)cc1` (configuration not stated), `COc1cc2ccnc(N3CCN(c4ccc5c(c4)CCC(=O)N5)CC3)c2cc1OC` is higher in melting point: 140 to 148 °C for the first, 235 to 240 °C for the second.

Compared with `Cc1nn(CCO)c(C)c1S(=O)(=O)c1cc(Cl)cc(Cl)c1`, `CC(COS(C)(=O)=O)N1c2ccccc2Sc2ccc(C#N)cc21` (racemic) is lower in melting point: 199 to 200 °C for the first, 124 °C for the second.

First: CNC(=C[N+](=O)[O-])NCCOc1cccc(CN(C)C)c1
Second: OCCOc1cccc2cccnc12
The melting point of the first is higher: 130 to 131 °C for the first, 82 to 84 °C for the second.

First: CCCCCCCCCCCCn1nnc(C(C(=O)O)c2ccccc2)n1 (configuration not stated)
Second: CNC(=O)CCn1cnc2c(N)nc3ccccc3c21
The melting point of the first is lower: 55 to 57 °C for the first, over 260 °C for the second.

First: O=C(O)c1cccc(C2Oc3ccccc3C(O)=C2Cc2ccccc2)c1 (configuration not stated)
Second: O=C1c2ccccc2CN1c1cccc(CCN2CCN(c3nsc4ccccc34)CC2)c1
The melting point of the first is higher: 210 to 212 °C for the first, 154 to 155 °C for the second.

First: OC(COc1ccccc1-c1nc2ccccc2s1)CN1CCN(C(c2ccccc2)c2ccccc2)CC1 (configuration not stated)
Second: NCCc1cn(C(c2ccccc2)(c2ccccc2)c2ccccc2)cn1
The melting point of the first is higher: 152 to 155 °C for the first, 111 to 113 °C for the second.

First: CC(C)(CO)Nc1nc2c(s1)CCc1cc(C#N)ccc1-2
Second: CC(C)(C)N[C@@H]1Cc2c(O)cccc2C[C@H]1O (relative stereo)
The melting point of the first is lower: 121 to 123 °C for the first, 123 to 127 °C for the second.

Compared with `O=C1Cn2c(c(Br)c3ccccc32)-c2ccccc2N1`, `COC(=O)CC(O)/C=C/c1c(-c2ccc(F)cc2)n(C(C)C)c(=O)c2ccccc12` (configuration not stated) is lower in melting point: 247 to 249 °C for the first, 167 to 168 °C for the second.

Compared with `COc1cc(NC(=O)N(CCCCCC(=O)O)c2ccccc2)c(O)c(C(C)(C)C)c1`, `CN(C)C(=O)Cc1cccc(C(=O)c2ccccc2)c1N` is higher in melting point: 95 to 98 °C for the first, 123 to 124 °C for the second.

First: FC(F)Oc1cc(-n2nc3c(c2Cl)CCCC3)c(Cl)cc1Cl
Second: O=C1C(=O)c2ccc(Cl)cc2C2=C1SCC1(CCN(CC(O)Cc3ccccc3)CC1)O2 (configuration not stated)
The melting point of the first is higher: 121 to 123 °C for the first, 92 to 96 °C for the second.

First: CC1CN(c2nnc(N3CC(C)OC(C)C3)c3cc(-c4ccccc4)ncc23)CC(C)O1 (configuration not stated)
Second: COC(=O)C1=C(C(=O)OC)c2c(c3ccccc3n2C)CC1
The melting point of the first is higher: 248 to 250 °C for the first, 113 °C for the second.

`CCc1c(CNc2cccc(N)n2)c(CC)c(CNc2cccc(N)n2)c(CC)c1CNc1cccc(N)n1` gave a melting point of 164 to 165 °C.
